{
  "source": "patent US8242251B2",
  "about": "“Unsymmetrical cyanine dimer compounds and their application” (Life Technologies Corporation, priority 2003, dated 2012)",
  "key": {"RNA versus DNA": {"test_system": "RNA versus DNA", "assay": "Screening of fluorescence properties and relative fluorescence enhancement with RNA versus DNA (Table 3)", "assay_type": "binding", "settings": "fluorescence enhancement when associated with RNA to that when associated with DNA"}, "[1]": {"test_system": "HeLa human cervical cancer cells", "assay": "Nucleic acid binding in live eukaryotic cells, HeLa (Example 41)", "assay_type": "cell-based", "protocol": "(§1) Bovine pulmonary arterial endothelial (BPEA) cells and HeLa human cervical cancer cells were grown in media for one day after plating on coverslips. Cells were labeled with 1 μM or 10 μM of Compound 21 for HeLa cells, or 10 μM in BPAE cells, in media at 37° C. for 20 minutes, then rinsed twice and mounted in warm medium. Coverslips were examined on a Nikon Eclipse 800 upright fluorescent microscope and imaged with a far red filter set, a Princeton Instruments MicroMax cooled CCD camera, and Universal Imaging MetaMorph imaging software."}, "[2]": {"test_system": "Bovine pulmonary arterial endothelial (BPEA) cells", "assay": "Nucleic acid binding in live eukaryotic cells, BPAE (Example 41)", "assay_type": "cell-based", "settings": "10 μM", "protocol": "as §1"}},
  "note": "Entries after “also recorded” stand apart in the source; their conditions may differ.",
  "data": [
    {"smiles": "C[n+]1c(/C=C2\\C=C(N3CCN(C4=C/C(=C\\c5oc6ccccc6[n+]5C)c5ccccc5N4c4ccccc4)CC3)N(c3ccccc3)c3ccccc32)oc2ccccc21.[Cl-].[Cl-]", "note": "[Compound 20]", "values": [
      {"measurement": "Fluorescence Enhancement Ratio (RNA/DNA)", "setting": "RNA versus DNA", "result": 8.5},
      {"measurement": "selective detection of RNA in live cells", "setting": "[1]", "result": "did not demonstrate selective detection of RNA in live cells"},
      {"measurement": "labeling pattern in HeLa cells", "setting": "[1]; 1 μM or 10 μM, far red filter set", "result": "mitochondrial labeling, with stronger punctate spots within the mitochondria, typical of mitochondrial DNA staining; also recorded: very dim nucleolar labeling"},
      {"measurement": "cell permeability in live cells", "setting": "[1]; 20 minutes 37° C.", "result": "cell permeable"},
      {"measurement": "labeling pattern in BPAE cells", "setting": "[2]", "result": "no specific labeling evident, and much higher off-cell background"}
    ]}
  ]
}
